{"source": "ChEMBL document CHEMBL3124782", "about": "“MHY884, a newly synthesized tyrosinase inhibitor, suppresses UVB-induced activation of NF-κB signaling pathway through the downregulation of oxidative stress” (Bioorg Med Chem Lett, 2014)", "key": {"[1]": {"assay": "Antioxidant activity assessed as peroxynitrite scavenging activity at 1 to 10 uM by DHR 123 assay", "assay_type": "functional"}, "[2]": {"assay": "Antioxidant activity assessed as ROS scavenging activity at 1 to 10 uM by DCFDA assay", "assay_type": "functional"}, "[3]": {"tested_on": "Mus musculus", "assay": "Antioxidant activity in melanin-possessing hairless mouse assessed as inhibition of UVB-induced peroxynitrite generation in skin homogenate compound treated topically to dorsal skin once a day for 21 days concomitantly irradiated with UV-B on alternate days from day 2 post-treatment by DHR 123 assay", "assay_type": "functional, organism-based"}, "[4]": {"tested_on": "Mus musculus", "assay": "(§1) Antioxidant activity in UVB-irradiated melanin-possessing hairless mouse assessed as inhibition of NF-kappaB-mediated iNOS expression in skin homogenate at 2 to 10 uM treated topically to dorsal skin once a day for 21 days concomitantly irradiated with UV-B on alternate days from day 2 post-treatment by Western blot method", "assay_type": "functional, organism-based"}, "[5]": {"tested_on": "Mus musculus", "assay": "Antioxidant activity in melanin-possessing hairless mouse assessed as inhibition of UVB-induced ROS generation in skin homogenate compound treated topically to dorsal skin once a day for 21 days concomitantly irradiated with UV-B on alternate days from day 2 post-treatment by DCFDA assay", "assay_type": "functional, organism-based"}, "[6]": {"tested_on": "B16-F10", "assay": "Inhibition of oxidative stress in mouse B16F10 cells assessed as SIN-1-induced ROS generation pretreated for 2 hrs followed by washout before SIN-1 challenge", "assay_type": "functional, cell-based"}, "[7]": {"tested_on": "B16-F10", "assay": "Inhibition of oxidative stress in mouse B16F10 cells assessed as SIN-1-induced peroxynitrite generation pretreated for 2 hrs followed by washout before SIN-1 challenge", "assay_type": "functional, cell-based"}, "[8]": {"tested_on": "Mus musculus", "assay": "as §1, with “COX-2” for “iNOS”", "assay_type": "functional, organism-based"}, "[9]": {"tested_on": "Mus musculus", "assay": "as §1, with “AKT-mediated IKKalphabeta phosphorylation at Ser176/180 residues” for “NF-kappaB-mediated iNOS expression”", "assay_type": "functional, organism-based"}, "[10]": {"tested_on": "Mus musculus", "assay": "as §1, with “nuclear translocation of p-p65 NF-kappaB Ser 536” for “NF-kappaB-mediated iNOS expression”", "assay_type": "functional, organism-based"}, "[11]": {"tested_on": "Mus musculus", "assay": "as §1, with “AKT phosphorylation at Thr 308 and Ser473 residues” for “NF-kappaB-mediated iNOS expression”", "assay_type": "functional, organism-based"}, "[12]": {"tested_on": "Mus musculus", "assay": "as §1, with “p65 NF-kappaB phosphorylation at Ser536 residue” for “NF-kappaB-mediated iNOS expression”", "assay_type": "functional, organism-based"}, "[13]": {"tested_on": "Mus musculus", "assay": "as §1, with “effect on GSH/GSSG ratio” for “inhibition of NF-kappaB-mediated iNOS expression”, “o-phthalaldehyde assay” for “Western blot method”", "assay_type": "functional, organism-based"}}, "note": "The source made the active and inactive calls. No cut-off for these calls is given here.", "data": [{"smiles": "CC(C)(S)[C@@H](N)C(=O)O", "values": [{"measurement": "Activity", "setting": "[1]", "result": "Active"}]}, {"smiles": "Cc1c(C)c2c(c(C)c1O)CCC(C)(C(=O)O)O2", "note": "(stereo not given)", "values": [{"measurement": "Activity", "setting": "[2]", "result": "Active"}]}, {"smiles": "COc1cc(C2Nc3cc(Cl)ccc3S2)cc(OC)c1O", "note": "(stereo not given)", "values": [{"measurement": "inhibition", "setting": "[3]", "result": "Dose-dependent effect"}, {"measurement": "inhibition", "setting": "[4]", "result": "Active"}, {"measurement": "inhibition", "setting": "[5]", "result": "Dose-dependent effect"}, {"measurement": "inhibition", "setting": "[6]", "result": "Dose-dependent effect"}, {"measurement": "inhibition", "setting": "[7]", "result": "Dose-dependent effect"}, {"measurement": "inhibition", "setting": "[8]", "result": "Active"}, {"measurement": "Activity", "setting": "[1]", "result": "Active"}, {"measurement": "inhibition", "setting": "[9]", "result": "Active"}, {"measurement": "inhibition", "setting": "[10]", "result": "Active"}, {"measurement": "inhibition", "setting": "[11]", "result": "Active"}, {"measurement": "inhibition", "setting": "[12]", "result": "Active"}, {"measurement": "Activity", "setting": "[13]", "result": "inactive"}, {"measurement": "Activity", "setting": "[2]", "result": "Active"}]}]}
